Several values for one entry are separate records, joined by “and”; a condition that tells them apart may be missing. Identical values can stand only once. Like-named read-outs stand apart in the source and are kept apart here.
What was measured:
[1] = 3 mg intravenous (IV); cited from earlier work
primary human T cells = assay: IL12 (p70) in lentivirus transduced primary human T cells, Bazedoxifene dose response (MSD assay); format: cell-based
Protocol: Primary human T cells were expanded with CD3/CD28 Dynabeads, transduced with lentivirus constructs and expanded for 10 days. Beads were removed and cells were frozen. T cells were later thawed and 100,000 cells were treated overnight with different doses of Bazedoxifene (BZD). Transduction efficiency was assessed by flow cytometry using CD19-Fc staining. The response of IL12 in CD19 CAR-IL12 tandem constructs to increasing concentrations of ligand was measured using OT-001736 construct with increasing doses of BZD starting at 0.01 nM to up to 3 μM for 23 hours. IL12 levels were measured using MSD assay. Controls tested in the experiment included OT-001357, which constitutively expresses IL12 and OT-001407, which is not expected to show any IL12 expression.
Additional ER mutants were tested in primary human T cells as described above, except T cells were treated on day 9 of expansion, and not frozen and thawed prior to the experiment (Table 15).

[2] = Pharmacokinetics of Bazedoxifene in CD-1 mice (plasma, LC-MS-MS); format: in vivo; set-up: Plasma Bazedoxifene Concentrations: unit not given here

EC50 (primary human T cells; T-cell, BZD dose response in primary human T cells expressing OT-001736, read-out: EC50 of IL12 induction): 200 nM
Plasma Bazedoxifene Concentrations ([2]; 10 mg/kg single dose, 0.25 hours post dose, free and bound combined, individual animals): 0.062 and 0.127 and 0.287
Plasma Bazedoxifene Concentrations ([2]; 10 mg/kg single dose, 0.5 hours post dose, free and bound combined, individual animals): 0.050 and 0.091
Plasma Bazedoxifene Concentrations ([2]; 10 mg/kg single dose, 1 hours post dose, free and bound combined, individual animals): 0.089 and 0.105
Plasma Bazedoxifene Concentrations ([2]; 10 mg/kg single dose, 2 hours post dose, free and bound combined, individual animals): 0.096 and 0.107
Plasma Bazedoxifene Concentrations ([2]; 10 mg/kg single dose, 4 hours post dose, free and bound combined, individual animals): 0.053 and 0.055
Plasma Bazedoxifene Concentrations ([2]; 10 mg/kg single dose, 7 hours post dose, free and bound combined, individual animals): 0.036 and 0.035
Plasma Bazedoxifene Concentrations ([2]; 10 mg/kg single dose, 10 hours post dose, free and bound combined, individual animals): 0.033 and 0.028 and 0.016
Plasma Bazedoxifene Concentrations ([2]; 10 mg/kg single dose, 24 hours post dose, free and bound combined, individual animals): 0.005 and 0.003 and 0.004
Plasma Bazedoxifene Concentrations ([2]; 100 mg/kg single dose, 0.25 hours post dose, free and bound combined, individual animals): 1.268 and 0.949 and 2.590
Plasma Bazedoxifene Concentrations ([2]; 100 mg/kg single dose, 0.5 hours post dose, free and bound combined, individual animals): 2.113 and 2.208 and 4.544
Plasma Bazedoxifene Concentrations ([2]; 100 mg/kg single dose, 1 hours post dose, free and bound combined, individual animals): 2.590 and 5.138
Plasma Bazedoxifene Concentrations ([2]; 100 mg/kg single dose, 2 hours post dose, free and bound combined, individual animals): 2.272 and 4.161
Plasma Bazedoxifene Concentrations ([2]; 100 mg/kg single dose, 4 hours post dose, free and bound combined, individual animals): 1.208 and 1.902
Plasma Bazedoxifene Concentrations ([2]; 100 mg/kg single dose, 7 hours post dose, free and bound combined, individual animals): 0.894 and 0.463 and 0.970
Plasma Bazedoxifene Concentrations ([2]; 100 mg/kg single dose, 10 hours post dose, free and bound combined, individual animals): 0.754 and 0.497 and 0.713
Plasma Bazedoxifene Concentrations ([2]; 100 mg/kg single dose, 24 hours post dose, free and bound combined, individual animals): 0.023 and 0.179 and 0.025
Plasma Bazedoxifene Concentrations ([2]; 200 mg/kg single dose, 0.25 hours post dose, free and bound combined, individual animals): 1.495 and 1.013
Plasma Bazedoxifene Concentrations ([2]; 200 mg/kg single dose, 0.5 hours post dose, free and bound combined, individual animals): 2.314 and 1.707
Plasma Bazedoxifene Concentrations ([2]; 200 mg/kg single dose, 1 hours post dose, free and bound combined, individual animals): 3.397 and 4.013
Plasma Bazedoxifene Concentrations ([2]; 200 mg/kg single dose, 2 hours post dose, free and bound combined, individual animals): 2.590 and 3.567
Plasma Bazedoxifene Concentrations ([2]; 200 mg/kg single dose, 4 hours post dose, free and bound combined, individual animals): 1.327 and 2.357
Plasma Bazedoxifene Concentrations ([2]; 200 mg/kg single dose, 7 hours post dose, free and bound combined, individual animals): 0.866 and 0.726 and 1.189
Plasma Bazedoxifene Concentrations ([2]; 200 mg/kg single dose, 10 hours post dose, free and bound combined, individual animals): 0.699 and 0.732 and 0.715
Plasma Bazedoxifene Concentrations ([2]; 200 mg/kg single dose, 24 hours post dose, free and bound combined, individual animals): 0.297 and 0.314 and 0.180
concentration at 0.5 h ([2]; CD-1, mouse, plasma, oral, 10 mg/kg, 10 mg/kg single dose, 0.5 hours post dose, free and bound combined, individual animals, read-out: Plasma Bazedoxifene Concentrations): 71 nM
concentration at 1 h ([2]; CD-1, mouse, plasma, oral, 10 mg/kg, 10 mg/kg single dose, 1 hours post dose, free and bound combined, individual animals, read-out: Plasma Bazedoxifene Concentrations): 97 nM
concentration at 2 h ([2]; CD-1, mouse, plasma, oral, 10 mg/kg, 10 mg/kg single dose, 2 hours post dose, free and bound combined, individual animals, read-out: Plasma Bazedoxifene Concentrations): 77 nM
concentration at 4 h ([2]; CD-1, mouse, plasma, oral, 10 mg/kg, 10 mg/kg single dose, 4 hours post dose, free and bound combined, individual animals, read-out: Plasma Bazedoxifene Concentrations): 49 nM
concentration at 7 h ([2]; CD-1, mouse, plasma, oral, 10 mg/kg, 10 mg/kg single dose, 7 hours post dose, free and bound combined, individual animals, read-out: Plasma Bazedoxifene Concentrations): 34 nM
concentration at 1 h ([2]; CD-1, mouse, plasma, oral, 100 mg/kg, 100 mg/kg single dose, 1 hours post dose, free and bound combined, individual animals, read-out: Plasma Bazedoxifene Concentrations): 3590 nM
concentration at 2 h ([2]; CD-1, mouse, plasma, oral, 100 mg/kg, 100 mg/kg single dose, 2 hours post dose, free and bound combined, individual animals, read-out: Plasma Bazedoxifene Concentrations): 2820 nM
concentration at 4 h ([2]; CD-1, mouse, plasma, oral, 100 mg/kg, 100 mg/kg single dose, 4 hours post dose, free and bound combined, individual animals, read-out: Plasma Bazedoxifene Concentrations): 1380 nM
concentration at 0.25 h ([2]; CD-1, mouse, plasma, oral, 200 mg/kg, 200 mg/kg single dose, 0.25 hours post dose, free and bound combined, individual animals, read-out: Plasma Bazedoxifene Concentrations): 1060 nM
concentration at 0.5 h ([2]; CD-1, mouse, plasma, oral, 200 mg/kg, 200 mg/kg single dose, 0.5 hours post dose, free and bound combined, individual animals, read-out: Plasma Bazedoxifene Concentrations): 1510 nM
concentration at 1 h ([2]; CD-1, mouse, plasma, oral, 200 mg/kg, 200 mg/kg single dose, 1 hours post dose, free and bound combined, individual animals, read-out: Plasma Bazedoxifene Concentrations): 2400 nM
concentration at 2 h ([2]; CD-1, mouse, plasma, oral, 200 mg/kg, 200 mg/kg single dose, 2 hours post dose, free and bound combined, individual animals, read-out: Plasma Bazedoxifene Concentrations): 3270 nM
concentration at 4 h ([2]; CD-1, mouse, plasma, oral, 200 mg/kg, 200 mg/kg single dose, 4 hours post dose, free and bound combined, individual animals, read-out: Plasma Bazedoxifene Concentrations): 1580 nM
Cmax ([2]; CD-1, mouse, plasma, dose of 200 mg/kg per os (PO), read-out: Murine Cmax): ~3000 nM
SMILES: Cc1c(-c2ccc(O)cc2)n(Cc2ccc(OCCN3CCCCCC3)cc2)c2ccc(O)cc12 [Bazedoxifene]
Cmax [1]: ~100 nM
lowest BZD concentration that induced IL12 expression (primary human T cells; primary human T cells expressing OT-001736): 0.05 µM
